Reference: EPA's ToxRefDB 2

Assays:
dog [1] = settings: Chronic toxicity, beagle, Oral, Capsule, dose end: 52 week, group: systemic
rat [2] = settings: Combined chronic toxicity/carcinogenicity, sprague dawley, Oral, Feed, dose end: 734 day, group: systemic
rat [3] = settings: Prenatal developmental toxicity study, sprague dawley, Oral, Feed, dose end: 20 GD
mouse = settings: Carcinogenicity, cd1, Oral, Feed, dose end: 87 week, group: systemic
rat [4] = settings: Developmental neurotoxicity range-finding study; sprague dawley; Oral; Feed; dose end: 22 PND; group: cannot be grouped; systemic / in life observation / clinical signs / tremors
dog [5] = settings: Subchronic oral toxicity in nonrodent, beagle, Capsule, dose end: 13 week
rat [6] = settings: Subchronic oral toxicity in rodents, sprague dawley, Feed, dose end: 90 day, group: systemic
rat [7] = settings: Prenatal developmental toxicity study, sprague dawley, Oral, Gavage/Intubation, dose end: 15 GD
rat [8] = settings: Sub-acute repeat dose toxicity, sprague dawley, Oral, Feed, dose end: 28 day, group: systemic
rat [9] = settings: Sub-acute repeat dose toxicity, sprague dawley, Oral, Feed, dose end: 28 day, group: systemic; remark: listed apart in the source
dog [10] = settings: Chronic toxicity, beagle, Oral, Capsule, dose end: 1 year, group: systemic
rabbit [11] = settings: Prenatal developmental toxicity study, new zealand white, Oral, Gavage/Intubation, dose end: 29 GD
dog [12] = settings: Sub-acute repeat dose toxicity; beagle; Oral; Capsule; dose end: 28 day; group: systemic; systemic / pathology microscopic / heart / lesion(s) (nos)
rabbit [13] = settings: Prenatal developmental toxicity study; new zealand white; Oral; Feed; dose end: 29 GD; group: developmental; developmental / developmental malformation / bone / absent + developmental / developmental malformation / bone / incomplete ossification + …
[14] = systemic / in life observation / clinical signs / tremors
[15] = systemic / in life observation / clinical signs / tremors + systemic / hematology / erythrocyte (rbc) count differential / erythrocyte (rbc…
[16] = group: developmental, developmental / developmental malformation / bone / unossified
[17] = group: maternal, systemic / in life observation / body weight / body weight gain + systemic / in life observation / clinical signs / hypersensitivity + …
[18] = systemic / pathology microscopic / testes / degeneration
[19] = group: maternal, reproductive / reproductive performance / estrous cycle / abnormal
[20] = group: systemic, systemic / in life observation / clinical signs / tremors + systemic / in life observation / body weight / body weight gain + systemic / in …
[21] = group: developmental, developmental / developmental malformation / ureter / hydroureter
[22] = group: maternal, systemic / in life observation / clinical signs / tremors
[23] = systemic / in life observation / body weight / body weight + systemic / in life observation / body weight / body weight gain + systemic / in…
[24] = systemic / in life observation / body weight / body weight gain
[25] = systemic / pathology microscopic / heart / lesion(s) (nos) + systemic / pathology microscopic / heart / fibrosis
[26] = group: developmental, developmental / developmental malformation / bone / absent + developmental / developmental malformation / bone / incomplete ossification + …
[27] = group: maternal, reproductive / reproductive performance / aborted / aborted + reproductive / reproductive performance / resorptions / resorptions + systemic…

Question: Which results are given for `Cc1c(COC(=O)[C@@H]2[C@H](/C=C(\Cl)C(F)(F)F)C2(C)C)cccc1-c1ccccc1` [Bifenthrin]?
Answer: LOAEL (dog [1]; [14]): 3 mg/kg/day; LEL (dog [1]; systemic / in life observation / clinical signs / tremors + systemic / clinical chemistry / sodium / sodium): 3 mg/kg/day; NEL (dog [1]; [15]): 1.5 mg/kg/day; NOAEL (dog [1]; [15]): 1.5 mg/kg/day; LOAEL (rat [2]; [14]): 6.1 mg/kg/day; NOAEL (rat [2]; systemic / in life observation / clinical signs / tremors + systemic / in life observation / body weight / body weight + systemic / in life …): 3 mg/kg/day; LEL (rat [2]; systemic / organ weight / kidney / relative to body weight + systemic / organ weight / liver / relative to body weight): 4.7 mg/kg/day; NEL (rat [2]; systemic / organ weight / kidney / relative to body weight + systemic / organ weight / liver / relative to body weight + systemic / in life …): 2.3 mg/kg/day; LEL (rat [3]; [16]): 16.3 mg/kg/day; LOAEL (rat [3]; [16]): > 16.3 mg/kg/day; NEL (rat [3]; [16]): 7.4 mg/kg/day; NOAEL (rat [3]; [16]): ≥ 16.3 mg/kg/day; LEL (rat [3]; [17]): 16.3 mg/kg/day; LOAEL (rat [3]; [17]): 16.3 mg/kg/day; NEL (rat [3]; [17]): 7.4 mg/kg/day; NOAEL (rat [3]; [17]): 7.4 mg/kg/day; LOAEL (mouse; [14]): 25.6 mg/kg/day; NOAEL (mouse; systemic / in life observation / clinical signs / tremors + systemic / pathology microscopic / liver / adenoma/carcinoma combined + systemic…): 6.7 mg/kg/day; LEL (mouse; [18]): 6.7 mg/kg/day; NEL (mouse; [18]): < 6.7 mg/kg/day; LEL (rat [4]): 9.3 mg/kg/day; LOAEL (rat [4]): > 9.3 mg/kg/day; NEL (rat [4]): 7.4 mg/kg/day; NOAEL (rat [4]): ≥ 9.3 mg/kg/day; LEL (dog [5]; [19]): 10 mg/kg/day; LOAEL (dog [5]; [19]): > 20 mg/kg/day; NEL (dog [5]; [19]): 5 mg/kg/day; NOAEL (dog [5]; [19]): ≥ 20 mg/kg/day; LOAEL (dog [5]; group: systemic, systemic / in life observation / clinical signs / tremors): 5 mg/kg/day; NEL (dog [5]; [20]): 2.5 mg/kg/day; NOAEL (dog [5]; [20]): 2.5 mg/kg/day; LEL (dog [5]; group: systemic, systemic / in life observation / clinical signs / tremors + systemic / in life observation / clinical signs / ataxia): 5 mg/kg/day; NEL (rat [6]; systemic / in life observation / body weight / body weight + systemic / in life observation / body weight / body weight gain): 17.2 mg/kg/day; LOAEL (rat [6]; [14]): 7.5 mg/kg/day; NOAEL (rat [6]; systemic / in life observation / clinical signs / tremors + systemic / clinical chemistry / potassium / potassium + systemic / clinical …): 3.8 mg/kg/day; LEL (rat [7]; [21]): 2 mg/kg/day; LOAEL (rat [7]; [21]): 2 mg/kg/day; NEL (rat [7]; [21]): 1 mg/kg/day; NOAEL (rat [7]; [21]): 1 mg/kg/day; LEL (rat [7]; [22]): 2 mg/kg/day; LOAEL (rat [7]; [22]): 2 mg/kg/day; NEL (rat [7]; [22]): 1 mg/kg/day; NOAEL (rat [7]; [22]): 1 mg/kg/day

Question: For `Cn1cnc2c1c(=O)[nH]c(=O)n2C` [Theobromine], which LOAEL (rat [8]; [23]) is on record?
Answer: > 912 mg/kg/day

Question: What about the NOAEL (rat [8]; [23]) of the same molecule?
Answer: ≥ 912 mg/kg/day

Question: And the LEL (rat [8]; systemic / in life observation / body weight / body weight + systemic / in life observation / food consumption / food consumption)?
Answer: 389 mg/kg/day

Question: And the NEL (rat [8]; systemic / in life observation / body weight / body weight + systemic / in life observation / food consumption / food consumption + systemic…)?
Answer: 200 mg/kg/day

Question: And the LOAEL (rat [9]; [23])?
Answer: > 492 mg/kg/day

Question: And the NOAEL (rat [9]; [23])?
Answer: ≥ 492 mg/kg/day

Question: What about the LEL (rat [9]; [24]) of the same molecule?
Answer: 94 mg/kg/day

Question: What about the NEL (rat [9]; [24]) of the same molecule?
Answer: < 94 mg/kg/day

Question: What about the LEL (dog [10]; systemic / pathology microscopic / heart / lesion(s) (nos)) of the same molecule?
Answer: 100 mg/kg/day

Question: What about the LOAEL (dog [10]; [25]) of the same molecule?
Answer: > 150 mg/kg/day

Question: What about the NOAEL (dog [10]; [25]) of the same molecule?
Answer: ≥ 150 mg/kg/day

Question: What about the LEL (rabbit [11]; group: developmental, developmental / developmental malformation / bone / absent + developmental / developmental malformation / bone / incomplete ossification) of the same molecule?
Answer: 75 mg/kg/day

Question: What about the LOAEL (rabbit [11]; [26]) of the same molecule?
Answer: > 200 mg/kg/day

Question: And the NEL (rabbit [11]; [26])?
Answer: 25 mg/kg/day

Question: And the NOAEL (rabbit [11]; [26])?
Answer: ≥ 200 mg/kg/day

Question: And the LOAEL (rabbit [11]; [27])?
Answer: > 200 mg/kg/day

Question: What about the NEL (rabbit [11]; [27]) of the same molecule?
Answer: 25 mg/kg/day

Question: What about the NOAEL (rabbit [11]; [27]) of the same molecule?
Answer: ≥ 200 mg/kg/day

Question: What about the LEL (rabbit [11]; group: maternal, reproductive / reproductive performance / resorptions / resorptions + reproductive / offspring survival early / dead fetuses / dead fetuses) of the same molecule?
Answer: 75 mg/kg/day

Question: What about the LEL (dog [12]) of the same molecule?
Answer: 100 mg/kg/day

Question: And the LOAEL (dog [12])?
Answer: > 150 mg/kg/day

Question: And the NEL (dog [12])?
Answer: 75 mg/kg/day

Question: What about the NOAEL (dog [12]) of the same molecule?
Answer: ≥ 150 mg/kg/day

Question: And the LEL (rabbit [13])?
Answer: 41 mg/kg/day

Question: What about the LOAEL (rabbit [13]) of the same molecule?
Answer: > 63 mg/kg/day

Question: And the NEL (rabbit [13])?
Answer: 21 mg/kg/day

Question: What about the NOAEL (rabbit [13]) of the same molecule?
Answer: ≥ 63 mg/kg/day
